Like-named read-outs stand apart in the source and are kept apart here.
Key:
TNFα = assay: cells; type: cell-based, human; details: LPS-stimulated human monocytes, read-out: EC50 TNF
IRAK4 enzyme = IRAK4 enzyme (Homo sapiens (Human), UniProt Q9NWZ3); assay: biochemical; type: biochemical; details: IRAK4 enzyme, 500 μM ATP
[1] = Homo sapiens, Monocyte, TNFα content
[2] = Homo sapiens, Monocyte, TNFα by TR-FRET

Sequence of IRAK4 enzyme (Q9NWZ3 whole entry): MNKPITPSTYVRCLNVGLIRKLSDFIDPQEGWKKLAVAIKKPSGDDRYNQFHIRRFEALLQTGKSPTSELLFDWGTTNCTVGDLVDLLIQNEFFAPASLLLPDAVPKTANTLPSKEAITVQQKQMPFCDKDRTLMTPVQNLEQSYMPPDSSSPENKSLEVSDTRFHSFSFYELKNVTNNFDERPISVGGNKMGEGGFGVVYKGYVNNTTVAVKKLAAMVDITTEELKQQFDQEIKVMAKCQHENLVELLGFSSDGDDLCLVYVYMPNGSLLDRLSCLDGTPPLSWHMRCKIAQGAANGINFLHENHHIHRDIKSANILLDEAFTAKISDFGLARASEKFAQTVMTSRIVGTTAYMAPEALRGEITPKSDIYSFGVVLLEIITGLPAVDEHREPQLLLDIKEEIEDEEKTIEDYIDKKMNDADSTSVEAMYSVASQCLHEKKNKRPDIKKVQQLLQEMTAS

| Structure (SMILES) | EC50 (TNFα; [1]) | IC50 (IRAK4 enzyme; TR-FRET (HTRF)) | IC50 (IRAK4 enzyme; TR-FRET) | EC50 (TNFα; TNFα content) | EC50 (TNFα; [2]) |
| --- | --- | --- | --- | --- | --- |
| CC(C)(O)[C@H](F)CNC(=O)c1cnc(-c2ccc3cc(C#N)cnn23)cc1NC12CCC(N3CCOC3=O)(CC1)CC2 [Example 399, 6-(3-cyanopyrrolo[1,2-b]pyridazin-7-yl)-N-((R)-2-fluoro-3-hydroxy-3-methylbutyl)-4-((4-(2-oxooxazolidin-3-yl)bicyclo[2.2.2]octan-1-yl)amino)nicotinamide] | 8 nM | < 1 nM |  |  |  |
| N#Cc1cnn2c(-c3cc(NC45CCC(O)(CC4)CC5)c(C(=O)NCCC4CCCO4)cn3)ccc2c1 (stereo not drawn) [Example 346, 6-(3-cyanopyrrolo[1,2-b]pyridazin-7-yl)-4-((4-hydroxybicyclo[2.2.2]octan-1-yl)amino)-N-(2-(tetrahydrofuran-2-yl)ethyl)nicotinamide] | 18 nM |  | 1 nM |  |  |
| CC(C)(O)[C@H](F)CNC(=O)c1cnc(-c2ccc3cc(C#N)cnn23)cc1N[C@H]1C[C@H](CNC(=O)[C@@H]2CC2(F)F)C1 [Example 699, 6-(3-cyanopyrrolo[1,2-b]pyridazin-7-yl)-4-(((1S,3R)-3-(((S)-2,2-difluorocyclopropane-1-carboxamido)methyl)cyclo-butyl)amino)-N-((R)-2-fluoro-3-hydroxy-3-methylbutyl)nicotinamide] | 36 nM | < 1 nM |  |  |  |
| CC(C)(O)[C@H](F)CNC(=O)c1cnc(-c2ccc3cc(C#N)cnn23)cc1NC1CC(Cc2cnco2)C1 (single isomer, unassigned) [Example 638] |  | < 1 nM |  | 26 nM |  |
| Cc1ncc(C2CCC(Nc3cc(-c4ccc5cc(C#N)cnn45)ncc3C(=O)NC[C@@H](F)C(C)(C)O)CC2)o1 (single isomer, unassigned) [Example 646] |  | < 1 nM |  | 15 nM |  |
| CC(C)(O)[C@H](F)CNC(=O)c1cnc(-c2ccc3cc(C#N)cnn23)cc1NC1CC2CCC(C1)N2 (stereo partly drawn) [Example 14, 4-(((1R,3r,5S)-8-azabicyclo[3.2.1]octan-3-yl)amino)-6-(3-cyanopyrrolo[1,2-b]pyridazin-7-yl)-N-((R)-2-fluoro-3-hydroxy-3-methylbutyl)nicotinamide] | 626 nM |  | 3 nM |  |  |
| C=CC(=O)N[C@H]1CC[C@H](NC(=O)c2cnc(-c3ccc4cc(C#N)cnn34)cc2NC2CCCC(O)C2)CC1 (stereo partly drawn) [Example 505, N-((1r,4S)-4-acrylamidocyclohexyl)-6-(3-cyanopyrrolo[1,2-b]pyridazin-7-yl)-4-(((1S,3R)-3-hydroxycyclohexyl)amino)nicotinamide] | 139 nM | 1 nM |  |  |  |
| COC1CN(C(=O)CNC(=O)c2cnc(-c3ccc4cc(C#N)cnn34)cc2NC23CCC(O)(CC2)CC3)C1 [Example 791, 6-(3-cyanopyrrolo[1,2-b]pyridazin-7-yl)-4-((4-hydroxybicyclo[2.2.2]octan-1-yl)amino)-N-(2-(3-methoxyazetidin-1-yl)-2-oxoethyl)nicotinamide] | 45 nM | 1 nM |  |  |  |
| CC(C)Nc1cc(-c2ccc3cc(C#N)cnn23)ncc1C(=O)NCC(F)(F)C(C)(C)O [Example 116, 6-(3-cyanopyrrolo[1,2-b]pyridazin-7-yl)-N-(2,2-difluoro-3-hydroxy-3-methylbutyl)-4-(isopropylamino) nicotinamide] | 98 nM |  | < 1 nM |  |  |
| CC(C)(O)[C@H](F)CNC(=O)c1cnc(-c2ccc3cc(C#N)cnn23)cc1Nc1ccc(-n2ncnn2)cc1 [Example 176, (R)-4-((4-(2H-tetrazol-2-yl)phenyl)amino)-6-(3-cyanopyrrolo[1,2-b]pyridazin-7-yl)-N-(2-fluoro-3-hydroxy-3-methylbutyl)nicotinamide] | > 10000 nM |  | 1 nM |  |  |
| CC(C)(O)[C@H](F)CNC(=O)c1cnc(-c2ccc3cc(C#N)cnn23)cc1N[C@H]1CCN(C2COC2)C1 [Example 110, 6-(3-cyanopyrrolo[1,2-b]pyridazin-7-yl)-N-((R)-2-fluoro-3-hydroxy-3-methylbutyl)-4-(((S)-1-(oxetan-3-yl)pyrrolidin-3-yl)amino) nicotinamide] | 191 nM |  | 4 nM |  |  |
| CC(C)(O)[C@H](F)CNC(=O)c1cnc(-c2ccc3cc(C#N)cnn23)cc1N[C@H]1CCOC1 [Example 195, 6-(3-cyanopyrrolo[1,2-b]pyridazin-7-yl)-N-((R)-2-fluoro-3-hydroxy-3-methylbutyl)-4-(((S)-tetrahydrofuran-3-yl)amino)nicotinamide] | 37 nM |  | < 1 nM |  |  |
| CNC(=O)c1cnc(-c2ccc3cc(C#N)cnn23)cc1N[C@H]1C[C@H](C(=O)NC)C1 [Example 472, 6-(3-cyanopyrrolo[1,2-b]pyridazin-7-yl)-N-methyl-4-(((1r,3r)-3-(methylcarbamoyl)cyclobutyl)amino) nicotinamide] | 5410 nM | 43 nM |  |  |  |
| CC(C)(O)[C@H](F)CNC(=O)c1cnc(-c2ccc3cc(C#N)cnn23)cc1Nc1ccc(-c2nc[nH]n2)cc1 [Example 175, (R)-4-((4-(1H-1,2,4-triazol-3-yl)phenyl)amino)-6-(3-cyanopyrrolo[1,2-b]pyridazin-7-yl)-N-(2-fluoro-3-hydroxy-3-methylbutyl)nicotinamide] | 20 nM |  | < 1 nM |  |  |
| CC(C)C(=O)NC[C@H]1C[C@H](Nc2cc(-c3ccc4cc(C#N)cnn34)ncc2C(=O)NC[C@@H](F)C(C)(C)O)C1 [Example 938, 6-(3-cyanopyrrolo[1,2-b]pyridazin-7-yl)-N-((R)-2-fluoro-3-hydroxy-3-methylbutyl)-4-(((1r,3R)-3-(isobutyramidomethyl)cyclobutyl)amino) nicotinamide] |  |  | 1 nM |  | 68 nM |
| CC(C)(O)[C@H](F)CNC(=O)c1cnc(-c2ccc3cc(C#N)cnn23)cc1Nc1ccc2nccn2c1 [Example 974, (R)-6-(3-cyanopyrrolo[1,2-b]pyridazin-7-yl)-N-(2-fluoro-3-hydroxy-3-methylbutyl)-4-(imidazo[1,2-a]pyridin-6-ylamino)nicotinamide] |  |  | 1 nM |  | 112 nM |
| CC(C)(O)[C@H](F)CNC(=O)c1cnc(-c2ccc3cc(C#N)cnn23)cc1NCc1cn[nH]c1 [Example 181, (R)-4-(((1H-pyrazol-4-yl)methyl)amino)-6-(3-cyanopyrrolo[1,2-b]pyridazin-7-yl)-N-(2-fluoro-3-hydroxy-3-methylbutyl)nicotinamide] | > 10000 nM |  | 1000 nM |  |  |
| CC(C)(O)[C@H](F)CNC(=O)c1cnc(-c2ccc3cc(C#N)cnn23)cc1NC[C@@H]1CCN1CC(F)(F)F [Example 891, 6-(3-cyanopyrrolo[1,2-b]pyridazin-7-yl)-N-((R)-2-fluoro-3-hydroxy-3-methylbutyl)-4-((((S)-1-(2,2,2-trifluoroethyl)azetidin-2-yl)methyl)amino)nicotinamide] |  |  | 4 nM |  | 249 nM |
| CC(C)(O)[C@H](F)CNC(=O)c1cnc(-c2ccc3cc(C#N)cnn23)cc1N[C@H]1CCCNC1 [Example 258, 6-(3-cyanopyrrolo[1,2-b]pyridazin-7-yl)-N-((R)-2-fluoro-3-hydroxy-3-methylbutyl)-4-(((S)-piperidin-3-yl)amino)nicotinamide] | 83 nM |  | 1 nM |  |  |
| CC(C)(CCNC(=O)c1cnc(-c2ccc3cc(C#N)cnn23)cc1NC12CCC(O)(CC1)CC2)NS(C)(=O)=O [Example 342, 6-(3-cyanopyrrolo[1,2-b]pyridazin-7-yl)-4-((4-hydroxybicyclo[2.2.2]octan-1-yl)amino)-N-(3-methyl-3-(methyl-sulfonamido)butyl) nicotinamide] | 83 nM |  | 1 nM |  |  |
| CC(C)(O)[C@H](F)CNC(=O)c1cnc(-c2ccc3cc(C#N)cnn23)cc1NC1CCC2(CCC(=O)N2)CC1 (stereo partly drawn) [Example 265, 6-(3-cyanopyrrolo[1,2-b]pyridazin-7-yl)-N-((R)-2-fluoro-3-hydroxy-3-methylbutyl)-4-(((5S,8s)-2-oxo-1-azaspiro[4.5]decan-8-yl)amino) nicotinamide] | 690 nM |  | 2 nM |  |  |
| COC(=O)NCC1(F)CC(Nc2cc(-c3ccc4cc(C#N)cnn34)ncc2C(=O)NC[C@@H](F)C(C)(C)O)C1 (single isomer, unassigned) [Example 765] |  | 6 nM |  | 323 nM |  |
| CC(C)(O)[C@H](F)CNC(=O)c1cnc(-c2ccc3cc(C#N)cnn23)cc1NC[C@H]1CCC(=O)N1 [Example 106, 6-(3-cyanopyrrolo[1,2-b]pyridazin-7-yl)-N-((R)-2-fluoro-3-hydroxy-3-methylbutyl)-4-((((R)-5-oxopyrrolidin-2-yl)methyl)amino) nicotinamide] | 1380 nM |  | 3 nM |  |  |
| N#Cc1ccc(NC(=O)c2cnc(-c3ccc4cc(C#N)cnn34)cc2N[C@H]2CCC[C@@H](O)C2)nc1 [Example 386, 6-(3-cyanopyrrolo[1,2-b]pyridazin-7-yl)-N-(5-cyanopyridin-2-yl)-4-(((1S,3R)-3-hydroxycyclohexyl)amino)nicotinamide] | 2380 nM |  | 8 nM |  |  |
| CC(C)(O)[C@H](F)CNC(=O)c1cnc(-c2ccc3cc(C#N)cnn23)cc1Nc1nc(-c2ccc(Oc3ccccc3)cc2)cs1 [Example 359, (R)-6-(3-cyanopyrrolo[1,2-b]pyridazin-7-yl)-N-(2-fluoro-3-hydroxy-3-methylbutyl)-4-((4-(4-phenoxyphenyl)thiazol-2-yl)amino)nicotinamide] | > 10000 nM |  | 614 nM |  |  |
| N#Cc1cnn2c(-c3cc(NC45CCC(O)(CC4)CC5)c(C(=O)NC4CCC(NC(=O)C5CC5)CC4)cn3)ccc2c1 (stereo not drawn) [Example 506, 6-(3-cyanopyrrolo[1,2-b]pyridazin-7-yl)-N-((1r,4r)-4-(cyclopropane-carboxamido)cyclohexyl)-4-((4-hydroxybicyclo[2.2.2]octan-1-yl)amino) nicotinamide] | 50 nM | < 1 nM |  |  |  |
| CC(C)Nc1cc(-c2ccc3cc(C#N)cnn23)ncc1C(=O)NCCS(C)(=O)=O [Example 92, 6-(3-cyanopyrrolo[1,2-b]pyridazin-7-yl)-4-(isopropylamino)-N-(2-(methylsulfonyl)ethyl) nicotinamide] | 80 nM |  | 2 nM |  |  |
